Source: paper PMC12095047, “Transport of phenoxyacetic acid herbicides by PIN-FORMED auxin transporters” (Nature Plants, 2025)
“And” between values parts separate entries of the source, which are not always exact repeats. Identical values can stand only once. Like-named read-outs stand apart in the source and are kept apart here.

Assays:
Type in all cases: biochemical
[1] = biological target: T1, PIN8 S55A/S146A (Arabidopsis thaliana, UniProt Q9LFP6, S146A/S55A); details: Michaelis–Menten fit
T1 construct: made in house
Description: (§1) SSM, using a SURFE2R N1 from Nanion Technologies, was conducted as described. In brief, soy polar lipid mix (38% phosphatidyl choline, 30% phosphatidyl ethanolamine, 18% phosphatidyl inositol, 7% phosphatidic acid and 7% other soy lipids) and 1-palmitoyl-2-oleoyl-sn-glycero-3-phosphocholin were purchased from Avanti. Liposomes were prepared in Ringer solution without Ca^2+ (115 mM NaCl, 2.5 mM KCl, 1 mM NaHCO3, 10 mM HEPES pH7.4, 1 mM MgCl2) and homogenized using a Lipsofast (Avestin) with a […]. Triton X-100 was added to the liposomes to a final concentration of 1% (v/v). Protein was added to liposomes to a calculated lipid-to-protein ratio (LPR) of 10 unless stated otherwise. The detergent was removed using 400 mg ml^−1 Bio Beads (BioRad) overnight at 4 °C in a rotary shaker. Proteoliposomes were frozen in liquid nitrogen and kept at −80 °C until use. Proteoliposomes were diluted 1:5 in Ringer solution without Ca^2+, sonicated five times and then applied to the sensors by centrifugation (30 min, 3,000 g, 4 °C). Non-activating buffer was Ringer solution without Ca^2+ as described unless specified otherwise, and activating buffer contained the substrate of interest. In most instances we used a single-solution exchange experiment. In this case proteoliposomes, immobilized on the supported membrane, are kept in non-activating buffer as specified. At the beginning of the experiment the non-activating buffer is replaced with fresh identical non-activating buffer, and after 1 s, activating buffer (same buffer containing substrate) is added. After another second, the buffer is replaced with non-activating buffer again. Current response is recorded throughout the entire 3 s. For competition or inhibition, the respective compound was present in non-activating and activating solutions. Each experiment was performed on at least two individual sensors. On each sensor each measurement consists of three technical replicates where the mean is calculated. KD values were determined as described previously. Briefly, the binding current induced by 100 µM NPA was recorded in the presence of different concentrations of the substrate under investigation ranging between 0 µM and 1,000 µM present in the activating solution and the non-activating solution (Extended Data Fig. 5b). […] The maximum peak current was then plotted as a function of the concentration of the substrate under investigation and plotted against the degree of inhibition and fitted with a one-site binding model using GraphPad Prism V10.4.1 The half maximal concentration corresponds to the KD of the substrate under investigation.
(§2) The protocol for expression and purification of AtPIN8 protein (Uniprot: Q9LFP6) in lauryl maltose neopentyl glycol was described previously. All point mutants were generated using Q5 Site-Directed mutagenesis kit (New England Biolabs). The C-flat Holey Carbon grids (CF-1.2/1.3, Cu-300 mesh) were glow-discharged for 45 s at 15 mA in a GloQube Plus (Quorum). […] After 1 h of incubation on ice, the sample was centrifuged at 16,000 g for 15 min before blotting to remove precipitation. A drop of 4 µl of each sample was applied to the glow-discharged grids, blotted with a Vitrobot Mark IV (ThermoFisher Scientific) using the following settings (temperature 4 °C, 100% humidity, blot time of 4 s, blot force −1) and vitrified in liquid ethane.

[2] = biological target: T2, PIN8 I51Y (Arabidopsis thaliana, UniProt Q9LFP6, I51Y); details: Michaelis–Menten fit
T2 construct: made in house
Description: as §1, §2

[3] = biological target: T3, PIN8 Y150A (Arabidopsis thaliana, UniProt Q9LFP6, Y150A); details: for Peak current: Y150A, individual sensors
T3 construct: made in house
Description: as §1, §2

[4] = biological target: T4, PIN8 S146A (Arabidopsis thaliana, UniProt Q9LFP6, S146A); details: for Peak current: individual sensors
T4 construct: made in house
Description: as §1, §2

[5] = biological target: T5, PIN8 N223A (Arabidopsis thaliana, UniProt Q9LFP6, N223A); details: PIN8 N223A, Michaelis–Menten fit
T5 construct: made in house
Description: as §1, §2

[6] = biological target: T6, PIN8 Y150F (Arabidopsis thaliana, UniProt Q9LFP6, Y150F)
T6 construct: made in house
Description: as §1, §2

[7] = biological target: T7, PIN8 N117A (Arabidopsis thaliana, UniProt Q9LFP6, N117A); assay: SSM electrophysiology peak current, PIN8 N117A proteoliposomes; details: Substrate IAA, replicates
T7 construct: made in house
Description: as §1, §2

[8] = biological target: T8, A. thaliana PIN8 (Arabidopsis thaliana, UniProt Q9LFP6); assay: SSM electrophysiology, peak current response on PIN8 proteoliposomes; details: for Peak current: WT, individual sensors; for Peak current (nA): Sensor 1-3
T8 construct: made in house
T8 sequence (Q9LFP6 1-367): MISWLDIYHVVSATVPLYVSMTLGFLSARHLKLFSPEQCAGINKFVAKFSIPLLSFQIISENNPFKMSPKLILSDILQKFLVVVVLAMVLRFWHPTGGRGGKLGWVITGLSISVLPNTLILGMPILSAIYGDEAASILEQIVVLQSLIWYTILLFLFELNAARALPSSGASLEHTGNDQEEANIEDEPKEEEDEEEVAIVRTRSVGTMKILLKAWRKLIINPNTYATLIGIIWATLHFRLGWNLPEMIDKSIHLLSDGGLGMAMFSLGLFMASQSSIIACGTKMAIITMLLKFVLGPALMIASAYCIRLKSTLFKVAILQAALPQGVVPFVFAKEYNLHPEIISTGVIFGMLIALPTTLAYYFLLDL
Description: as §1

[9] = biological target: T9, wild-type PIN8 proteoliposomes (Arabidopsis thaliana, UniProt Q9LFP6); assay: SSM electrophysiology, peak width (FWHM) of current response at LPR10 and LPR50; details: for Rel. FWHM (% of LPR10): replicates
T9 construct: made in house
T9 sequence (Q9LFP6 1-367): T8 sequence (Q9LFP6 1-367)
Description: as §1

[10] = read-out: EC50 of peak current response
[11] = WT PIN8 proteoliposomes, Michaelis–Menten fit

T3 sequence (Q9LFP6 whole entry Y150A): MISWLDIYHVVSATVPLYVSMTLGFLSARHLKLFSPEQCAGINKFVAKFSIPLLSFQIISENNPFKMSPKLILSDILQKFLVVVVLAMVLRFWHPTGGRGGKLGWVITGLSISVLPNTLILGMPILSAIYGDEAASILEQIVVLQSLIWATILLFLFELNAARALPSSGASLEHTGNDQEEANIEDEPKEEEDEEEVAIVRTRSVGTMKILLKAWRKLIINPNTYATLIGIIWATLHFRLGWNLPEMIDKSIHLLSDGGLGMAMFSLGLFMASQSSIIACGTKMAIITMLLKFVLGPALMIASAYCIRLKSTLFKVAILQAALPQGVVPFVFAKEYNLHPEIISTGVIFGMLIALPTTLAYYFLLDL
T7 sequence (Q9LFP6 whole entry N117A): as the sequence (Q9LFP6 whole entry Y150A) above, with N117A, A150Y counted along it
T4 sequence (Q9LFP6 whole entry S146A): as the sequence (Q9LFP6 whole entry Y150A) above, with S146A, A150Y counted along it
T6 sequence (Q9LFP6 whole entry Y150F): as the sequence (Q9LFP6 whole entry Y150A) above, with A150F counted along it
T5 sequence (Q9LFP6 whole entry N223A): as the sequence (Q9LFP6 whole entry Y150A) above, with A150Y, N223A counted along it
T1 sequence (Q9LFP6 whole entry S55A/S146A): as the sequence (Q9LFP6 whole entry Y150A) above, with S55A, S146A, A150Y counted along it
T2 sequence (Q9LFP6 whole entry I51Y): as the sequence (Q9LFP6 whole entry Y150A) above, with I51Y, A150Y counted along it

## O=C(O)Cc1c[nH]c2ccccc12 [IAA, indole-3-acetic acid]
[1]
  Imax: 7 ± 2 nA
[1]; [10]
  EC50: 341 ± 128 µM
[2]
  Imax: 2 ± 0.2 nA
[2]; [10]
  EC50: 547 ± 171 µM
[3]; PIN8 Y150A, Michaelis–Menten fit
  Imax: 4 ± 0.3 nA
[3]; PIN8 Y150A, Michaelis–Menten fit, read-out: EC50 of peak current response
  EC50: 1210 ± 298 µM
[3]; 5 µM substrate
  Peak current: 0.07393 nA and 0.1605 nA and 0.184 nA
[3]; 20 µM substrate
  Peak current: 0.162 nA and 0.2178 nA and 0.2518 nA
[3]; 50 µM substrate
  Peak current: 0.2702 nA and 0.3405 nA and 0.3285 nA
[3]; 100 µM substrate
  Peak current: 0.09437 nA and 0.3629 nA and 0.1017 nA
[3]; 500 µM substrate
  Peak current: 0.8668 nA and 1.165 nA and 0.6916 nA
[3]; 1000 µM substrate
  Peak current: 1.921 nA and 2.062 nA and 1.677 nA
[3]; 2000 µM substrate
  Peak current: 2.244 nA and 2.472 nA and 1.95 nA
[4]; PIN8 S146A, Michaelis–Menten fit
  Imax: 8 ± 2 nA
[4]; PIN8 S146A, Michaelis–Menten fit, read-out: EC50 of peak current response
  EC50: 498 ± 191 µM
[4]; S146A, 5 µM substrate
  Peak current: 0.4304 nA and 0.01967 nA and 0.2252 nA
[4]; S146A, 20 µM substrate
  Peak current: 0.857 nA and 0.324 nA and 0.6461 nA
[4]; S146A, 50 µM substrate
  Peak current: 1.458 nA and 0.6503 nA and 1.2348 nA
[4]; S146A, 100 µM substrate
  Peak current: 2.021 nA and 0.7074 nA and 1.578 nA
[4]; S146A, 500 µM substrate
  Peak current: 4.698 nA and 2.244 nA and 4.077 nA
[4]; S146A, 1000 µM substrate
  Peak current: 6.329 nA and 3.684 nA and 6.024 nA
[4]; S146A, 2000 µM substrate
  Peak current: 7.444 nA and 4.338 nA and 6.988 nA
[4]; S146A, direction (higher or lower affinity) shown by colour only
  fold-change difference to the respective EC50 of wildtype PIN8: ~ 2 fold
[5]
  Imax: 2 ± 0.8 nA
[5]; No transport = model could not be fit, read-out: EC50 of peak current response
  EC50: 444 ± 205 µM
[6]; PIN8 Y150F, Michaelis–Menten fit
  Imax: 6 ± 2 nA
[6]; PIN8 Y150F, Michaelis–Menten fit, read-out: EC50 of peak current response
  EC50: 452 ± 32 µM
[6]; Y150F, direction shown by colour only
  fold-change difference to the respective EC50 of wildtype PIN8: ~ 2 fold
[7]; 100µM
  Relative Peak Current of WT (%): 3.5397% and 5.375% and 9.48% and 13.4511%
[7]; 2mM
  Relative Peak Current of WT (%): 11.8985% and 14.7068% and 17.3968% and 15.4928%
[8]; [11]
  EC50: 250 µM and 254 µM
  maximal current Imax: 18 ± 3 nA
[8]; 5 µM substrate
  Peak current: 0.8096 nA and 0.6401 nA and 0.949 nA
[8]; 20 µM substrate
  Peak current: 1.842 nA and 1.724 nA and 2.164 nA
[8]; 50 µM substrate
  Peak current: 3.368 nA and 3.292 nA and 4.115 nA
[8]; 100 µM substrate
  Peak current: 4.516 nA and 4.8122 nA and 5.921 nA
[8]; 500 µM substrate
  Peak current: 9.827 nA and 10.2734 nA and 12.6135 nA
[8]; 1000 µM substrate
  Peak current: 13.1379 nA and 13.1579 nA and 16.4113 nA
[8]; 2000 µM substrate
  Peak current: 14.7357 nA and 15.0585 nA and 18.9117 nA
[8]; [IAA] 5 µM
  Peak current (nA): 0.04999 nA and 0.08856 nA and 0.0843 nA
[8]; [IAA] 50 µM
  Peak current (nA): 0.4222 nA and 0.6123 nA and 0.4745 nA
[8]; [IAA] 100 µM
  Peak current (nA): 0.6662 nA and 0.8986 nA and 0.7119 nA
[8]; [IAA] 500 µM
  Peak current (nA): 1.469 nA and 1.771 nA and 1.558 nA
[8]; [IAA] 1000 µM
  Peak current (nA): 1.848 nA and 2.271 nA and 1.967 nA
[8]; [IAA] 2000 µM
  Peak current (nA): 2.237 nA and 2.442 nA and 2.41 nA
[9]; LPR10
  Rel. FWHM (% of LPR10): 1.043 % of LPR10 and 0.9783 % of LPR10 (2×)
[9]; LPR10 versus LPR50
  peak width of SSM-based current response as a function of lipid-to-protein ratio (LPR): vary with lipid-to-protein ratio (LPR)
[9]; LPR50
  Rel. FWHM (% of LPR10): 2.022 % of LPR10 (2×) and 1.957 % of LPR10
